Assay results as given in ChEMBL document CHEMBL4400524, “Optimizing TRPM4 inhibitors in the MHFP6 chemical space” (Eur J Med Chem, 2019).
The source made the active and inactive calls. No cut-off for these calls is given here.

Key:
Type in all cases: cell-based
[1] = molecular target: T1, Transient receptor potential cation channel subfamily M member 4 (Homo sapiens, UniProt Q8TD43); assay: Inhibition of Flag-tagged TRPM4 (unknown origin) expressed in HEK293 cells assessed as reduction in intracellular Na+ influx after 45 mins by ANG2 dye-based fluorescence assay
T1 sequence (Q8TD43 whole entry): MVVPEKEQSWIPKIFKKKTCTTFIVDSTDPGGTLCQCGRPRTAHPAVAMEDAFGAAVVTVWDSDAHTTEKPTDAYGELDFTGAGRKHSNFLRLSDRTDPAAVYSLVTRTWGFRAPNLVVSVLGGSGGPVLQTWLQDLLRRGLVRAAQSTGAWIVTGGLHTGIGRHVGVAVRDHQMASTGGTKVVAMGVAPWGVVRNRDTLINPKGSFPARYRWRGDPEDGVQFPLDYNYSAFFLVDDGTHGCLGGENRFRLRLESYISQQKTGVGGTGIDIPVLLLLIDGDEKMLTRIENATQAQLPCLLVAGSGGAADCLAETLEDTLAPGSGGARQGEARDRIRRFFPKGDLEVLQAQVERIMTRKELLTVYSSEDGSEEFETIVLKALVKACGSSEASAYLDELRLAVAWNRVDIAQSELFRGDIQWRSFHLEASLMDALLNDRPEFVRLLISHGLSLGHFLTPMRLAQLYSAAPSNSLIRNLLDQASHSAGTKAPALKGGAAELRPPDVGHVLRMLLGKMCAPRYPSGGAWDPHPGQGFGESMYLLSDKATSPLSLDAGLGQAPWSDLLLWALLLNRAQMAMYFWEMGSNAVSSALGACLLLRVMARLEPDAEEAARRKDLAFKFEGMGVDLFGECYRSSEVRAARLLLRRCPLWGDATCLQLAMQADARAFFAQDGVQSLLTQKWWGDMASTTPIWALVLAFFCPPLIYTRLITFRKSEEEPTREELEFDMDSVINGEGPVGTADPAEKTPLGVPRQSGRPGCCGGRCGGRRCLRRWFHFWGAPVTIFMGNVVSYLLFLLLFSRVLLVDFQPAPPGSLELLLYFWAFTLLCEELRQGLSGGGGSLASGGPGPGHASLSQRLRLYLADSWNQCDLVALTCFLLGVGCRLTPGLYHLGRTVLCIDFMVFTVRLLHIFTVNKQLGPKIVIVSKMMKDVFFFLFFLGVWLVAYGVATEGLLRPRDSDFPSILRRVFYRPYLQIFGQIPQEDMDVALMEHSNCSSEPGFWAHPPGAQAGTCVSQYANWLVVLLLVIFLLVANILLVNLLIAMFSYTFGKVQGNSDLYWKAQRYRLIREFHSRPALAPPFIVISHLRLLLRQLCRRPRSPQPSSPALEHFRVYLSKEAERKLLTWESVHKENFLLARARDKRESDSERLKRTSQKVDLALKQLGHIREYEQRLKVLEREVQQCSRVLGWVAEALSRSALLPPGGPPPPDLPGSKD

[2] = molecular target: T1, Transient receptor potential cation channel subfamily M member 4; assay: Inhibition of Flag-tagged TRPM4 (unknown origin) expressed in HEK293 cells assessed as reduction in intracellular Na+ influx up to 100 uM after 45 mins by ANG2 dye-based fluorescence assay
[3] = molecular target: T1, Transient receptor potential cation channel subfamily M member 4; assay: Inhibition of Flag-tagged TRPM4 (unknown origin) expressed in HEK293 cells assessed as reduction in intracellular Na+ influx at 10 uM after 45 mins by ANG2 dye-based fluorescence assay relative to control

| Structure (SMILES) | IC50 [1] | also measured |
| --- | --- | --- |
| Cc1cccc(NC(=O)COc2ccccc2Cl)c1C(=O)O | 1.3 µM |  |
| Cc1cc(Cl)ccc1OC(C)C(=O)Nc1cc(Cl)ccc1C(=O)O (centres undefined) |  | IC50 ([1]; hek293): 1.6 µM |
| O=C(COc1ccccc1Cl)Nc1cc(-c2ccsc2)ccc1C(=O)O | 5.9 µM |  |
| O=C(COc1ccccc1Cl)Nc1cc(Cl)ccc1C(=O)NS(=O)(=O)C1CC1 | 2.8 µM |  |
| Cc1noc(C)c1-c1ccc(C(=O)O)c(NC(=O)COc2ccccc2Cl)c1 |  | inhibition [2]: inactive |
| O=C(COc1ccccc1Cl)Nc1cc(Cl)c(Cl)cc1C(=O)O |  | inhibition [3]: 30% |
| O=C(COc1ccccc1Cl)Nc1cc(-c2nccs2)ccc1C(=O)O | 4.7 µM |  |
| N#Cc1ccc(C(=O)O)c(NC(=O)COc2ccccc2Cl)c1 | 3.6 µM |  |
| O=C(COc1ccccc1Cl)Nc1cc(-c2ncco2)ccc1C(=O)O | 4.9 µM |  |
